In patent publication US10758530B2, “Carboxamide derivatives useful as rsk inhibitors” (PHOENIX MOLECULAR DESIGNS, priority 2016, dated 2020):
Entries after “also recorded” stand apart in the source; their conditions may differ. Structures can show the parent of a compound that is named as a salt.

Tests used:
[1] = Solubility assessment (20 mg/ml solution, precipitate formation, pH strips); assay type: physicochemical; details: for Solubility, 20 mg/ml solution: dissolved in DMSO (100 mM); for pH of 20 mg/ml solution: dissolved in DMSO
Procedure: Solubility is an important property for therapeutic drug candidates. Poor solubility can lead to low bioavailability resulting in suboptimal drug delivery. It can also prevent the evaluation of test agents in animals because the concentration(s) needed to achieve the desired effect cannot be achieved to poor solubility. For solubility assessments, small molecules targeting RSK were compared. For these assessments, 100 mM solutions of the compounds dissolved in DMSO were diluted in DMEM growth media (Life Technologies) supplemented with fetal bovine serum (FBS, Life Technologies) and 100 units/ml penicillin and 100 units/mi streptomycin (Life Technologies) to make 20 mg/ml solutions. Once diluted, the solutions were vortexed and examined for the formation of precipitates. […] For Compound 26, a 100 mM solution of the compound dissolved in DMSO was diluted in phosphate buffered saline (Life Technologies) to make a 20 mg/ml solution. The stock of […] was chosen because this is the upper end of what would be required to dose mice for a range of studies including MTD, PK, PD and efficacy. The pH of this solution was determined to be 2, as previously described. […] At high concentrations some RSK inhibitors were highly soluble while others were not. Compound 0 is (R)—N-(1-benzyl-1H-pyrazol-4-yl)-9-methyl-6-oxo-6,7,8,9-tetrahydropyrido[3′,2′:4,5]pyrrolo[1,2-a]pyrazine-2-carboxamide. Compound 0 was not soluble, whereas Compounds 18, 20, 21, 25 and 26 were soluble under the same conditions (Table 5).

[2] = tested on: SUM149-PTXR; assay: Monolayer growth inhibition, crystal violet assay; assay type: cell-based; details: Homo sapiens, 120 h; TNBC, BRCA mutant; 5 days, single dose
[3] = tested on: SUM149-PTXR; assay: Monolayer growth inhibition, Alamar blue assay; assay type: cell-based; details: Homo sapiens, 120 h; TNBC, BRCA mutant; 5 days, single dose
Procedure: (§2) 1×10^3 cells per well were seeded for a final volume of 200 μl per well and plates were incubated for 5 days at 37° C. in a humidified incubator with 5% CO2. Following the incubation period, cell survival was quantified by Alamar blue assay (Life Technologies). Briefly, media from each well was replaced with 100 μl of phosphate buffer saline (PBS, Life Technologies) and cells were incubated with 5% Alamar blue, which incorporates a propriety redox indicator that changes colour in response to metabolic activity, for up to 2 hours. During this period of incubation, the absorbance at 570 nm and 600 nm was measured at various time points, depending on the cell line or sample. Percent survival was calculated by comparing the absorbance ratio of the test well to the control well multiplied by 100%, as indicated in the following formula:

[4] = tested on: All cell lines of Tables 6A/6B; assay: Monolayer growth inhibition, Alamar blue assay, range over all cell lines; assay type: cell-based; details: 120 h, read-out: IC50 Values - Alamar Blue (5 Days), Range, All
Procedure: as §2

[5] = tested on: All cell lines of Tables 7A/7B; assay: Monolayer growth inhibition, crystal violet assay, range over all cell lines; assay type: cell-based; details: 120 h, read-out: IC50 Values - Crystal Violet (5 Days), Range, All
[6] = tested on: CIITA; assay: CIITA mRNA expression in MDA-MB-231 and JIMT-1 cells; assay type: cell-based, Human; details: Compound 16 2 or 4 uM; Compound 18 1, 2, or 4 uM
Description: (§1) A key feature of cancer is low immunogenicity. This can occur by several mechanisms that allow the cells to escape immune recognition. […] HLA-DRA is a member of MHC-II genes and CIITA is the master regulator of MHC II transcription. Thus it was surprising that CIITA, which would be expected to regulate MHC II gene expression, was not altered by RSK inhibition. […] HLA-DRA is important for immune recognition while PD-L1 is involved in immune checkpoints.

[7] = tested on: CD274; assay: CD274 (PD-L1 gene) expression in MDA-MB-231 cells; assay type: cell-based, Human; details: Compound 16 2 or 4 uM; Compound 18 1, 2, or 4 uM
Description: as §1

[8] = tested on: HLA-DRA mRNA; assay: HLA-DRA mRNA expression in MDA-MB-231 and JIMT-1 cells; assay type: cell-based, Human; details: Compound 16 2 or 4 uM; Compound 18 1, 2, or 4 uM
Description: as §1

[9] = tested on: phosphorylated Y-box binding protein-1 (YB-1) at serine 102 (P-YB-1 S102); assay: Immunoblotting of P-YB-1 (cell signalling inhibition) in MDA-MB-231 cells
Procedure: Generation of cellular extracts: Following desired experimental conditions, breast cancer cell lines grown and treated in 6 well plates or 100 mm culture dishes (Grenier Bio-One) were placed on ice and the supernatant from each well was removed and the cells were washed in cold PBS. Following removal of PBS, cells were exposed to radioimmunoprecipitation assay (RIPA) buffer (50 mM Tris-HCl (pH 8), 150 mM NaCl, 1% NP-40, 0.5% sodium deoxycholate, 0.1% SDS; Fisher Scientific) supplemented with 1% phosphatase inhibitor (Fisher Scientific) and 1% protease inhibitor (Fisher Scientific) for 10 minutes. Samples were transferred to eppendorf tubes, vortexed and then centrifuged at 14 000 rpm for 10 minutes. Supernatants were collected as whole cell lysates. For mouse tumour tissues, each sample was place in a 35 mm culture dish with complete RIPA lysis buffer. The samples were diced in the buffer on ice with a sterile scalpel (VWR) and the buffer and tissue were transferred to an eppendorf tube. The samples were left on ice for 10 minutes with periodic vortexing every 2 to 3 minutes. The samples were then transferred to a Qiashredder (Qiagen) and centrifuged at 14 000 rpm for 2 minutes. The flow through was transferred to a new eppendorf tube and the samples were centrifuged again at 14 000 rpm for 5 minutes. Supernatants were collected as whole cell lysates.
Immunoblotting: To begin, the protein content of the lysates was measured using the Bicinchoninic Acid (BCA) Protein Assay Kit (Pierce), which included a protein standard curve generated with bovine serum albumin. […] For certain immunoblots, bands of proteins of interest were scanned and band intensity ratios were determined by densitometric analysis (ImageJ). […] To assess whether cells are actively undergoing cell death, the activity of poly ADP ribose polymerase (PARP) (1:1000 CST) was also measured using the immunoblotting method.

[10] = tested on: CD274; assay: CD274 (PD-L1 gene) expression in JIMT-1 cells; assay type: cell-based, Human; details: 1-20 uM
Description: as §1

[11] = tested on: P-YB-1; assay: Pharmacodynamics: P-YB-1 signalling in MDA-MB-231 xenograft tumors (immunoblotting); details: n=3 treated 3 days, n=9 treated 21 days
Procedure: For mouse tumour tissues, each sample was place in a 35 mm culture dish with complete RIPA lysis buffer. The samples were diced in the buffer on ice with a sterile scalpel (VWR) and the buffer and tissue were transferred to an eppendorf tube. The samples were left on ice for 10 minutes with periodic vortexing every 2 to 3 minutes. The samples were then transferred to a Qiashredder (Qiagen) and centrifuged at 14 000 rpm for 2 minutes. The flow through was transferred to a new eppendorf tube and the samples were centrifuged again at 14 000 rpm for 5 minutes. Supernatants were collected as whole cell lysates.
Immunoblotting: To begin, the protein content of the lysates was measured using the Bicinchoninic Acid (BCA) Protein Assay Kit (Pierce), which included a protein standard curve generated with bovine serum albumin. Appropriate volumes of samples and loading buffer (50 mM Tris-HCl (pH 6.8), 2% SDS, 10% glycerol, 1% 3-mercaptoethanol, 12.5 mM EDTA, 0.02% bromophenol blue) were mixed, ensuring that equal amounts of protein were loaded. For the majority of experiments in this study, 30 μg of protein per well was loaded. […] For certain immunoblots, bands of proteins of interest were scanned and band intensity ratios were determined by densitometric analysis (ImageJ). […]
Cell signalling was evaluated by immunoblotting. […]

[12] = diluted in DMEM, hydrochloride salt
[13] = diluted in PBS, hydrochloride salt

SMILES	Solubility, 20 mg/ml solution ([1]; diluted in DMEM)	IC50 [2]	IC50 [3]	IC50 [4]	IC50 [5]	other results
C[C@@H]1CNC(=O)c2cc3ccc(C(=O)Nc4cnn(Cc5ccccc5)c4)nc3n21 [Compound 0, (R)—N-(1-benzyl-1H-pyrazol-4-yl)-9-methyl-6-oxo-6,7,8,9-tetrahydropyrido[3′,2′:4,5]pyrrolo[1,2-a]pyrazine-2-carboxamide, reference compound]	not soluble; also recorded: Precipitate	–	–	–	–	Solubility for systemic delivery in mice (qualitative) [1]: poor or nonexistent solubility
C[C@@H]1CNC(=O)c2cc3ccc(NC(=O)c4cnn(Cc5ccccc5)c4)cc3n21 [Compound 11, (R)-1-benzyl-N-(4-methyl-1-oxo-1,2,3,4-tetrahydropyrazino[1,2-a]indol-7-yl)-1H-pyrazole-4-carboxamide]	–	44.6 ± 3.9 µM	36.4 ± 11.9 µM	–	–	–
C[C@@H]1CNC(=O)c2cc3ccc(NC(=O)c4cnn(Cc5ccccc5)c4)nc3n21 [Compound 15, (R)-1-benzyl-N-(9-methyl-6-oxo-6,7,8,9-tetrahydropyrido[3′,2′:4,5]pyrrolo[1,2-a]pyrazin-2-yl)-1H-pyrazole-4-carboxamide]	–	8.8 ± 2.2 µM	9.2 ± 3 µM	3.6 to 21.3 µM	5.9 to 21 µM	–
C[C@@H]1CNC(=O)c2cc3ccc(C(=O)Nc4cnn(Cc5cccc(N)c5)c4)nc3n21 [Compound 16, (R)—N-(1-(3-aminobenzyl)-1H-pyrazol-4-yl)-9-methyl-6-oxo-6,7,8,9-tetrahydropyrido[3′,2′:4,5]pyrrolo[1,2-a]pyrazine-2-carboxamide]	–	3.5 ± 1.2 µM	2.5 ± 0.4 µM	0.9 to 17.4 µM	1.2 to 13.3 µM	mRNA expression of CIITA [6]: little effect; Levels of CD274 in MDA-MB-231 cells [7]: reduced levels of CD274; HLA-DRA mRNA levels [8]: elevated levels of HLA-DRA mRNA; Loss of P-YB-1 ([9]; 0.01-1 uM, 96 hrs): dose dependent loss of P-YB-1
C[C@@H]1CNC(=O)c2cc3ccc(C(=O)Nc4cnn(Cc5ccccc5N)c4)nc3n21 [Compound 17, (R)—N-(1-(2-aminobenzyl)-1H-pyrazol-4-yl)-9-methyl-6-oxo-6,7,8,9-tetrahydropyrido[3′,2′:4,5]pyrrolo[1,2-a]pyrazine-2-carboxamide]	–	5.2 ± 0.6 µM	4.2 ± 1.5 µM	1.2 to 12.6 µM	1 to 8.9 µM	–
C[C@@H]1CNC(=O)c2cc3ccc(C(=O)Nc4cnn(Cc5ccc(N)cc5)c4)nc3n21 [Compound 18, (R)—N-(1-(4-aminobenzyl)-1H-pyrazol-4-yl)-9-methyl-6-oxo-6,7,8,9-tetrahydropyrido[3′,2′:4,5]pyrrolo[1,2-a]pyrazine-2-carboxamide]	Soluble	–	–	–	–	mRNA expression of CIITA [6]: little effect; CD274 in JIMT-1 cells [10]: inhibited CD274; Levels of CD274 in MDA-MB-231 cells [7]: reduced levels of CD274; HLA-DRA mRNA levels [8]: elevated levels of HLA-DRA mRNA; pH of 20 mg/ml solution ([1]; diluted in DMEM): 9; Loss of P-YB-1 ([9]; 0.01-1 uM, 96 hrs): dose dependent loss of P-YB-1
C[C@@H]1CNC(=O)c2cc3ccc(NC(=O)c4cnn(Cc5cccc(N)c5)c4)nc3n21 [Compound 19, (R)-1-(3-aminobenzyl)-N-(9-methyl-6-oxo-6,7,8,9-tetrahydropyrido[3′,2′:4,5]pyrrolo[1,2-a]pyrazin-2-yl)-1H-pyrazole-4-carboxamide]	–	13 ± 1.3 µM	14.1 ± 4.3 µM	10.5 to 37.3 µM	7.4 to 34 µM	–
C[C@@H]1CNC(=O)c2cc3ccc(C(=O)Nc4cnn(CC5CCN(C)CC5)c4)nc3n21 [Compound 20, (R)-9-methyl-N-(1-((1-methylpiperidin-4-yl)methyl)-1H-pyrazol-4-yl)-6-oxo-6,7,8,9-tetrahydropyrido[3′,2′:4,5]pyrrolo[1,2-a]pyrazine-2-carboxamide]	Soluble	–	–	–	–	pH of 20 mg/ml solution ([1]; diluted in DMEM): 8
C[C@@H]1CNC(=O)c2cc3ccc(C(=O)Nc4ccccc4C(N)=O)nc3n21 [Compound 21, (R)—N-(2-carbamoylphenyl)-9-methyl-6-oxo-6,7,8,9-tetrahydropyrido[3′,2′:4,5]pyrrolo[1,2-a]pyrazine-2-carboxamide]	Soluble	2 ± 0.2 µM	1.5 ± 0.8 µM	1.2 to 14.7 µM	1.1 to 11.3 µM	pH of 20 mg/ml solution ([1]; diluted in DMEM): 9
C[C@@H]1CNC(=O)c2cc3ccc(C(=O)Nc4cnn(Cc5ccc(C(F)(F)F)cc5)c4)nc3n21 [Compound 22, (R)-9-methyl-6-oxo-N-(1-(4-(trifluoromethyl)benzyl)-1H-pyrazol-4-yl)-6,7,8,9-tetrahydropyrido[3′,2′:4,5]pyrrolo[1,2-a]pyrazine-2-carboxamide]	Precipitate	8 ± 1.3 µM	7.8 ± 4.6 µM	4.5 to 17.1 µM	2.6 to 14.2 µM	–
C[C@@H]1CNC(=O)c2cc3ccc(C(=O)Nc4cnn(Cc5ccc(F)cc5F)c4)nc3n21 [Compound 23, (R)—N-(1-(2,4-difluorobenzyl)-1H-pyrazol-4-yl)-9-methyl-6-oxo-6,7,8,9-tetrahydropyrido[3′,2′:4,5]pyrrolo[1,2-a]pyrazine-2-carboxamide]	Precipitate	5 ± 2.4 µM	5.1 ± 4 µM	1.1 to 19.8 µM	1.1 to 15 µM	–
C[C@@H]1CNC(=O)c2c(Cl)c3ccc(C(=O)Nc4cnn(Cc5ccccc5)c4)nc3n21 [Compound 24, (R)—N-(1-benzyl-1H-pyrazol-4-yl)-5-chloro-9-methyl-6-oxo-6,7,8,9-tetrahydropyrido[3′,2′:4,5]pyrrolo[1,2-a]pyrazine-2-carboxamide]	Precipitate	4.5 ± 1.4 µM	3.4 ± 2.1 µM	0.5 to 12.3 µM	0.3 to 9.1 µM	–
C[C@@H]1CNC(=O)c2cc3ccc(C(=O)Nc4cnn(Cc5ccc(N)cc5)c4)nc3n21 [Compound 25, (R)—N-(1-(4-aminobenzyl)-1H-pyrazol-4-yl)-9-methyl-6-oxo-6,7,8,9-tetrahydropyrido[3′,2′:4,5]pyrrolo[1,2-a]pyrazine-2-carboxamide hydrochloride salt]	–	–	5.2 ± 4.2 µM	–	–	Tumors with reduced P-YB-1 signaling (3 and 21 days combined) [11]: 12/12; Solubility for systemic delivery in mice (qualitative) [1]: superior solubility; Solubility, 20 mg/ml solution [1, 12]: Soluble; pH of 20 mg/ml solution [1, 12]: 2; Loss of P-YB-1 ([9]; 0.01, 0.1, 1, or 10 uM, 24 hrs): dose dependent loss of P-YB-1
C[C@@H]1CNC(=O)c2cc3ccc(C(=O)Nc4cnn(Cc5ccc(CN)cc5)c4)nc3n21 [Compound 26, (R)—N-(1-(4-(aminomethyl)benzyl)-1H-pyrazol-4-yl)-9-methyl-6-oxo-6,7,8,9-tetrahydropyrido[3′,2′:4,5]pyrrolo[1,2-a]pyrazine-2-carboxamide hydrochloride salt]	–	6.5 ± 2.1 µM	8.8 ± 2.5 µM	1.9 to 15.5 µM	1.5 to 12.3 µM	Solubility, 20 mg/ml solution [1, 13]: Soluble; pH of 20 mg/ml solution [1, 13]: 2-9
